In patent US20200405696A1, “INHIBITORS OF INDOLEAMINE 2,3-DIOXYGENASE AND/OR TRYPTOPHAN 2,3-DIOXYGENASE” (IDORSIA PHARMACEUTICALS LTD, priority 2018, published 2020) one finds IC50 data, which are given here for 26 compounds.

Assay [1] deals with T1, Recombinant full-length human IDO1 (Homo sapiens, UniProt P14902).
T1 construct: Recombinant full-length human IDO1 with a N-terminal hexahistidine tag; hexahistidine (His6) (N); made in house; host or cells: E. coli
Briefly: IDO1 enzymatic assay (NFK quantified by LCMS). It is filed as biochemical. To be noted: 2 nM enzyme, 5 μM L-tryptophan, pH6.5, 30 minutes pre-incubation at RT; mean values when measured multiple times; read-out: hIDO activity (IC50 in nM). In a few lines: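 IC50 comes from four-parameter logistic fits of duplicate data, with NFK quantified by LCMS and normalized to L-Trp-(indole-d5). Compound (0.5 nM–10 μM) was preincubated 30 min at RT with 2 nM E. coli-expressed IDO1 before a 30 min reaction with 5 μM tryptophan in pH 6.5 buffer containing ascorbate and methylene blue.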

In assay [2] the target is T2, Recombinant human TDO comprising amino acids 19-407 (Homo sapiens, UniProt P48775).
T2 construct: Recombinant human TDO comprising amino acids 19-407 with a N-terminal hexahistidine tag; hexahistidine (His6) (N); made in house; host or cells: E. coli
In words: TDO2 enzymatic assay (NFK quantified by LCMS). The following applies: 15 nM enzyme, 200 μM L-tryptophan, pH7, 30 minutes pre-incubation at RT; mean values when measured multiple times; read-out: hTDO activity (IC50 in nM). Format: biochemical. The gist of the method:
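NFK formed over 30 min at RT from 200 μM L-tryptophan was measured by LCMS, normalized to d5-tryptophan, after compound (0.5 nM–10 μM, duplicates, 0.6% DMSO) was preincubated 30 min with 15 nM recombinant His-tagged TDO 19-407 in phosphate buffer pH 7. IC50 from four-parameter logistic fit; repeats averaged.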

T1 sequence (P14902 whole entry): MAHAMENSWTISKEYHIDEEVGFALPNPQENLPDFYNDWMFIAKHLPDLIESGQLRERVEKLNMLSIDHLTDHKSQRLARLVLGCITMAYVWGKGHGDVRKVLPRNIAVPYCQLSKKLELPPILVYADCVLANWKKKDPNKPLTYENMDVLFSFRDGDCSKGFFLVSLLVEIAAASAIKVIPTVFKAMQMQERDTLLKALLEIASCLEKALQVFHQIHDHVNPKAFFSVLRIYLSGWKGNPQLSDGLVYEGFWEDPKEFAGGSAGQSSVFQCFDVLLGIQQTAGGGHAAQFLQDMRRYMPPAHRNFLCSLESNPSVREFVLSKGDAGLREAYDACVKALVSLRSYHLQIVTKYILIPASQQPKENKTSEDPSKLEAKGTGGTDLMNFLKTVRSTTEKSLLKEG
T2 sequence (P48775 19-406 limits assumed): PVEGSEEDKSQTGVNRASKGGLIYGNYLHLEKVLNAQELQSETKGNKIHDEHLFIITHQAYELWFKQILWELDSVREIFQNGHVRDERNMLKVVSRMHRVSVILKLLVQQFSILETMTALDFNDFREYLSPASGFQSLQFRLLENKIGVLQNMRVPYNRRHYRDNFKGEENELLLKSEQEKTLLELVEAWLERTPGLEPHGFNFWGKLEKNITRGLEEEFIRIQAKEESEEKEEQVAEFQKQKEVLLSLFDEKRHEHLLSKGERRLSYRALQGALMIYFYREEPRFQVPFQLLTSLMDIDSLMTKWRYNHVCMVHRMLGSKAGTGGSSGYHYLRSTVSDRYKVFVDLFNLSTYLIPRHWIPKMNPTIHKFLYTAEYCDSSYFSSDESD

The IC50 is the concentration that inhibits the measured activity by half. On to `CCOc1ncc(-n2cc(C(O)c3c(C4CC4)sc4cncn34)nn2)cc1C(F)(F)F` (racemic) [Example 76, rac-(2-Cyclopropyl-imidazo[5,1-b]thiazol-3-yl)-[1-(6-ethoxy-5-trifluoromethyl-pyridin-3-yl)-1H-[1,2,3]triazol-4-yl]-methanol], for which the IC50 is 363 nM in assay [1] and over 10200 nM in assay [2].

With `Cc1sc2cncn2c1C(O)c1cnn(-c2ccccc2)c1` (racemic) [Example 96, rac-(2-Methyl-imidazo[5,1-b]thiazol-3-yl)-(1-phenyl-1H-pyrazol-4-yl)-methanol], the IC50 turned out to be 163 nM in assay [1] and 2530 nM in assay [2].

`OC(c1cn(-c2ccc(C(F)(F)F)cc2)nn1)c1c(C2CC2)sc2cncn12` (racemic) [Example 6, rac-(2-Cyclopropyl-imidazo[5,1-b]thiazol-3-yl)-[1-(4-trifluoromethyl-phenyl)-1H-[1,2,3]triazol-4-yl]-methanol]: the IC50 is 119 nM in assay [1] and over 10200 nM in assay [2].

As to `OC(c1cn(-c2cnc3c(c2)CCCO3)nn1)c1c(C2CC2)sc2cncn12` (racemic) [Example 72, rac-(2-Cyclopropyl-imidazo[5,1-b]thiazol-3-yl)-[1-(3,4-dihydro-2H-pyrano[2,3-b]pyridin-6-yl)-1H-[1,2,3]triazol-4-yl]-methanol], the figures for the IC50 in assay [1] and in assay [2] were 35.5 nM and over 10200 nM, respectively.

With `CC(C)C(=O)Nc1ccc(-n2cc(C(O)c3c(C4CC4)sc4cncn34)nn2)cc1` (racemic) [Example 192, rac-N-(4-{4-[(2-Cyclopropyl-imidazo[5,1-b]thiazol-3-yl)-hydroxy-methyl]-[1,2,3]triazol-1-yl}-phenyl)-isobutyramide], the IC50 was 13.5 nM in assay [1] and over 10200 nM in assay [2].

Regarding `OC(c1cnn(-c2ccc3c(c2)OCCO3)c1)c1c(C2CC2)sc2cncn12` (racemic) [Example 222, rac-(2-Cyclopropyl-imidazo[5,1-b]thiazol-3-yl)-[1-(2,3-dihydro-benzo[1,4]dioxin-6-yl)-1H-pyrazol-4-yl]-methanol], the figures for the IC50 in assay [1] and in assay [2] were 97.2 nM and 7880 nM, respectively.

In the case of `O[C@@H](c1cn(-c2ccc3[nH]ccc3c2)nn1)c1c(C2CC2)sc2cncn12` [Example 16a, (R)-(2-Cyclopropyl-imidazo[5,1-b]thiazol-3-yl)-[1-(1H-indol-5-yl)-1H-[1,2,3]triazol-4-yl]-methanol], the IC50 is 4.55 nM in assay [1] and 4570 nM in assay [2].

As to `CNC(=O)c1ccc(-n2cc(C(O)c3c(C4CC4)sc4cncn34)nn2)cc1` (racemic) [Example 182, rac-4-{4-[(2-Cyclopropyl-imidazo[5,1-b]thiazol-3-yl)-hydroxy-methyl]-[1,2,3]triazol-1-yl}-N-methyl-benzamide], the figures for the half-inhibitory concentration (IC50) in assay [1] and in assay [2] were 26 nM and over 10200 nM, respectively.

`COC(=O)Nc1ccc(-n2cc(C(O)c3c(C)sc4cncn34)nn2)cc1` (racemic) [Example 58, rac-(4-{4-[Hydroxy-(2-methyl-imidazo[5,1-b]thiazol-3-yl)-methyl]-[1,2,3]triazol-1-yl}-phenyl)-carbamic Acid Methyl Ester]: the IC50 in assay [1] was 69.1 nM; in assay [2], 8050 nM.

In the case of `N#Cc1cc(-n2cc(C(O)c3c(C4CC4)sc4cncn34)nn2)ccc1OC(F)(F)F` (racemic) [Example 199, rac-5-{4-[(2-Cyclopropyl-imidazo[5,1-b]thiazol-3-yl)-hydroxy-methyl]-[1,2,3]triazol-1-yl}-2-trifluoromethoxy-benzonitrile], the IC50 is 73.1 nM in assay [1] and over 10200 nM in assay [2].

Turning to `Oc1ccc(-n2cc(C(O)c3c(C4CC4)sc4cncn34)nn2)c(OC(F)(F)F)c1` (racemic) [Example 213, rac-4-{4-[(2-Cyclopropyl-imidazo[5,1-b]thiazol-3-yl)-hydroxy-methyl]-[1,2,3]triazol-1-yl}-3-trifluoromethoxy-phenol], the IC50 in assay [1] is 199 nM; in assay [2] it was 2620 nM.

For `COc1c(F)cc(-n2cc(C(O)c3c(C4CC4)sc4cncn34)nn2)cc1Cl` (racemic) [Example 288, rac-[1-(3-Chloro-5-fluoro-4-methoxy-phenyl)-1H-[1,2,3]triazol-4-yl]-(2-cyclopropyl-imidazo[5,1-b]thiazol-3-yl)-methanol], the IC50 is 15.1 nM in assay [1] and over 10200 nM in assay [2].

With `Oc1cc(-n2cc(C(O)c3c(C4CC4)sc4cncn34)nn2)ccc1Cl` (racemic) [Example 217, rac-2-Chloro-5-{4-[(2-cyclopropyl-imidazo[5,1-b]thiazol-3-yl)-hydroxy-methyl]-[1,2,3]triazol-1-yl}-phenol], the half-inhibitory concentration (IC50) in assay [1] was 9.6 nM; in assay [2], over 10200 nM.

As to `COc1ccc(-n2cc(C(O)c3c(-c4cnn(C)c4)sc4cncn34)nn2)cc1` (racemic) [Example 273, rac-[1-(4-Methoxy-phenyl)-1H-[1,2,3]triazol-4-yl]-[2-(1-methyl-1H-pyrazol-4-yl)-imidazo[5,1-b]thiazol-3-yl]-methanol], the IC50 in assay [1] is 43.6 nM; in assay [2], over 10200 nM.

As to `COC(=O)c1cc(-n2cc(C(O)c3c(C4CC4)sc4cncn34)nn2)cnc1OC` (racemic) [Example 70, rac-5-{4-[(2-Cyclopropyl-imidazo[5,1-b]thiazol-3-yl)-hydroxy-methyl]-[1,2,3]triazol-1-yl}-2-methoxy-nicotinic acid methyl ester], the results for the IC50 in assay [1] and in assay [2] were 201 nM and over 10200 nM, respectively.

With `OC(c1cn(-c2ccc(OCC3CC3)cc2)nn1)c1c(C2CC2)sc2cncn12` (racemic) [Example 35, rac-(2-Cyclopropyl-imidazo[5,1-b]thiazol-3-yl)-[1-(4-cyclopropylmethoxy-phenyl)-1H-[1,2,3]triazol-4-yl]-methanol], the IC50 in assay [1] is 8.83 nM; in assay [2], over 10200 nM.

As for `Oc1ccc(-n2cc(C(O)c3c(C4CC4)sc4cncn34)nn2)cc1` (racemic) [Example 68, rac-4-{4-[(2-Cyclopropyl-imidazo[5,1-b]thiazol-3-yl)-hydroxy-methyl]-[1,2,3]triazol-1-yl}-phenol], the values for the IC50 in assay [1] and in assay [2] were 8.08 nM and over 10200 nM, respectively.

Turning to `OC(c1cn(-c2ccc(OC(F)(F)F)cc2)nn1)c1c(C2CC2)sc2cncn12` (racemic) [Example 31, rac-(2-Cyclopropyl-imidazo[5,1-b]thiazol-3-yl)-[1-(4-trifluoromethoxy-phenyl)-1H-[1,2,3]triazol-4-yl]-methanol], the figures for the IC50 in assay [1] and in assay [2] were 108 nM and over 10200 nM, respectively.

On to `OC(c1cn(-c2cccc3cnccc23)nn1)c1c(C2CC2)sc2cncn12` (racemic) [Example 23, rac-(2-Cyclopropyl-imidazo[5,1-b]thiazol-3-yl)-(1-isoquinolin-5-yl-1H-[1,2,3]triazol-4-yl)-methanol], for which the IC50 in assay [1] was 24 nM; in assay [2], over 10200 nM.

`OC(c1cn(-c2ccc(OCCC3(O)CC3)cc2)nn1)c1c(C2CC2)sc2cncn12` (racemic) [Example 142, rac-1-[2-(4-{4-[(2-Cyclopropyl-imidazo[5,1-b]thiazol-3-yl)-hydroxy-methyl]-[1,2,3]triazol-1-yl}-phenoxy)-ethyl]-cyclopropanol]: the IC50 in assay [1] is 13.3 nM; in assay [2], over 10200 nM.

As to `CN(C)CCOc1ccc(-n2cc(C(O)c3c(C4CC4)sc4cncn34)nn2)cc1` (racemic) [Example 204, rac-(2-Cyclopropyl-imidazo[5,1-b]thiazol-3-yl)-{1-[4-(2-dimethylamino-ethoxy)-phenyl]-1H-[1,2,3]triazol-4-yl}-methanol], the IC50 in assay [1] was 292 nM; in assay [2], over 10200 nM.

With `OC(c1cn(-c2ccnc3ccccc23)nn1)c1c(C2CC2)sc2cncn12` (racemic) [Example 25, rac-(2-Cyclopropyl-imidazo[5,1-b]thiazol-3-yl)-(1-quinolin-4-yl-1H-[1,2,3]triazol-4-yl)-methanol], the IC50 was 18.3 nM in assay [1] and over 10200 nM in assay [2].

On to `OC(c1ccc(-c2ccccc2)s1)c1c(C2CC2)sc2cncn12` (racemic) [Example 164, rac-(2-Cyclopropyl-imidazo[5,1-b]thiazol-3-yl)-(5-phenyl-thiophen-2-yl)-methanol], for which the IC50 in assay [1] is 317 nM; in assay [2], over 10200 nM.

As to `O=C(c1ccc(-n2cc(C(O)c3c(C4CC4)sc4cncn34)nn2)cc1)N1CCOCC1` (racemic) [Example 103, rac-(4-{4-[(2-Cyclopropyl-imidazo[5,1-b]thiazol-3-yl)-hydroxy-methyl]-[1,2,3]triazol-1-yl}-phenyl)-morpholin-4-yl-methanone], the figures for the IC50 in assay [1] and in assay [2] were 78.1 nM and over 10200 nM, respectively.

Take `COc1ccc(-n2cc(C(O)c3c(C4CC4)sc4cncn34)nn2)cn1` (racemic) [Example 69, rac-(2-Cyclopropyl-imidazo[5,1-b]thiazol-3-yl)-[1-(6-methoxy-pyridin-3-yl)-1H-[1,2,3]triazol-4-yl]-methanol]: the IC50 in assay [1] is 22.7 nM; in assay [2], over 10200 nM.

Consider `OC(c1ccc(-c2ccccc2C(F)(F)F)s1)c1c(C2CC2)sc2cncn12` (racemic) [Example 170, rac-(2-Cyclopropyl-imidazo[5,1-b]thiazol-3-yl)-[5-(2-trifluoromethyl-phenyl)-thiophen-2-yl]-methanol], for which the IC50 turned out to be 550 nM in assay [1] and 3820 nM in assay [2].
